Experimental data: US9248163B2, “Insulin-like growth factor binding protein 7 for treatment of cancer” (University of Massachusetts, priority 2007, dated 2016)

How the values were obtained:
[1] = system: A375(Fluc-IRES-GFP) cells; test: Pulmonary metastasis model, A375(Fluc-IRES-GFP) cells by tail vein injection
From the text: For these experiments, A375(Fluc-IRES-GFP) cells were used, which are a highly metastatic, BRAF-positive human melanoma cell line stably expressing an Fluc-IRES-GFP reporter construct (where Fluc is the firefly luciferase gene, IRES is an internal ribosomal entry site and GFP is green fluorescent protein) (Collisson et al., 2003, Cancer Res., 63:5669-5673). The presence of Fluc-IRES-GFP enables tumor growth to be quantified over time in live animals by serial bioluminescent optical imaging.
Two treatment regimens were tested. In one set of experiments, administration of IGFBP7 was initiated 3 days after injection of A375-Fluc cells, at which time metastatic disease would be significant (FIG. 12A). In these experiments, 7×10^5 A375(Fluc-IRES-GFP) cells were injected into the tail vein of 10 athymic Balb/c (nu/nu) mice (Taconic). At days 3, 6 and 9, mice were injected via the tail vein with either 100 μg purified, recombinant IGFBP7 (n=5 mice) or, as a control, phosphate buffered saline (PBS) (n=5 mice). On day 6, mice were analyzed for quantitation of metastatic tumor burden by using a Xenogen brand bioluminescent imaging system. […] Mice were monitored daily for viability over 30 days, and the ability of systemically administered IGFBP7 to suppress metastatic disease was assessed by survival assays (Kaplan-Meier analysis).
In a second set of experiments, administration of IGFBP7 was initiated both before and shortly after injection of A375(Fluc-IRES-GFP) cells, to test the ability of IGFBP7 to function prophylactically to prevent metastasis and/or treat early metastatic disease (FIG. 13A). In these experiments, 100 μg purified, recombinant IGFBP7 (or, as a control, PBS) was injected into the tail vein of mice (n=5 mice for each group). One day later, mice were injected with 7×10^5 A375(Fluc-IRES-GFP) cells, followed by injection of 100 μg on days 3 and 6. Mice were monitored daily for viability over 30 days, and the ability of systemically administered IGFBP7 to suppress metastatic disease was assessed by survival assays (Kaplan-Meier analysis).

[2] = system: primary melanocytes and SK-MEL-28 melanoma cells; test: Quantitative real-time RT-PCR of the identified genes after rIGFBP7 addition; type: cell-based, human
Experimental: Total RNA was isolated using TRIZOL™ (Invitrogen) 7 days after retroviral transduction and puromycin selection. Reverse transcription was performed using SuperScript™ II Reverse Transcriptase (Invitrogen) as per the manufacturer's instructions, followed by quantitative real-time PCR using Platinum SYBR™ Green qPCR SuperMix-UDG with Rox (Invitrogen).
To understand the basis of this differential response, expression of the 17 identified genes was analyzed in primary melanocytes and BRAFV600E-positive SK-MEL-28 melanoma cells. […] PEA15, a known regulator of BRAF-MEK-ERK signaling (Formstecher et al., 2001, Dev. Cell, 1:239-250), is required for senescence (see FIG. 1F). Thus, the lack of PEA15 induction in IGFBP7-treated SK-MEL-28 cells can explain their failure to undergo senescence.

[3] = system: primary melanocytes; test: Proliferation assay of primary melanocytes (trypan blue exclusion); type: cell-based, human; conditions: 14 days after treatment
Experimental: For the proliferation assay shown in FIG. 1B, 1×10^4 cells stably expressing an shRNA were cultured in 12-well plate format, infected with BRAFV600E-expressing retrovirus and after 14 days stained with crystal violet. For all other quantitative proliferation assays, cell viability was measured by trypan blue exclusion test at the time point indicated in the relevant figure legend. Values were expressed as percent cell growth, as described in the relevant figure legend. For the proliferation assays shown in FIG. 2A, CM was replenished every 3 days, and proliferation was measured after a total of 14 days of CM treatment. Unless otherwise stated, rIGFBP7 was added to the culture medium at a concentration of 10 μg/ml.
To confirm that IGFBP7 could block cellular proliferation, purified recombinant IGFBP7 (rIGFBP7) was purified from baculovirus-infected insect cells. […] Collectively, the results of FIGS. 2A-2D indicate that following expression of BRAFV600E, melanocytes synthesize and secrete increased amounts of IGFBP7, which then acts through an autocrine/paracrine pathway to induce senescence.

[4] = system: SK-MEL-28 cells; test: Immunoblot analysis of SMARCB1, BNIP3L and activated caspase 3; type: cell-based, human; conditions: 10 μg/ml
Experimental: To prepare cell extracts, cells were lysed in Laemmli buffer; for phospho-proteins, cells were lysed in the presence of a phosphatase inhibitor cocktail (Sigma). To prepare conditioned media, cells were grown in Opti-MEM™ (Invitrogen) for 24 hours, and media was harvested and concentrated using Centricon™ plus 20 tubes (Millipore). Conditioned media was normalized to cell number prior to loading the gel. For the experiments shown in FIGS. 3D and 4C, rIGFBP7 was added to the culture medium at a concentration of 10 μg/ml. For the MEK/RAF inhibitor experiment of FIG. 4D, SK-MEL-28 cells were treated with 2 μg/ml or 10 μg/ml rIGFBP7, 20 μM or 40 μM of the MEK inhibitor PD98054 (Calbiochem), or 5 nM or 10 nM the RAF inhibitor GW5074 (Sigma) for 24 hours prior to harvesting cells. Proteins were resolved by SDS-PAGE and transferred to nitrocellulose. Blots were probed with the following antibodies: α-p16 (Abcam), α-acetylated H3K9 (Upstate), α-IGFBP7 (Santa Cruz), α-SMARCB1 (Abnova), α-BNIP3L (Proscience), α-BRAFV600E (Santa Cruz), α-cleaved caspase-3 p11 (Santa Cruz), α-β-actin (Sigma), α-phospho-ERK (Cell Signaling) or α-ERK (Cell Signaling).

[5] = system: NCI 60 panel of human cancer cell lines; test: Apoptosis (Annexin V-PE) in the NCI 60 panel of human cancer cell lines; type: cell-based
Experimental: The ability of IGFBP7 to induce apoptosis was assessed in the NCI 60 panel of human cancer cell lines, which were obtained from the National Cancer Institute (NCI). The panel includes cell lines corresponding to breast (MDA-MB-231, HS 578T, BT-549, T47-D, MCF7), ovarian (NCI-ADR-RES, OVCAR-3, OVCAR-5, OVCAR-8, OVCAR-4, SK-OV-3, IGROV1), prostate (DU-145, PC-3), renal (TK-10, CAKI-1, A496, ACHN, RXF-393, 786-O, SN12C, UO-31), non-small cell lung (NCI-H460, HOP-62, A549-ATCC, NCI-H226, EKVX, NCI-H322M, HOP-92, NCI-H522), central nervous system (CNS) (SF-295, SF-268, SF-539, SNB-19, SNB-75, U251), colon (HCT-15, SW-620, COLO205, HT29, HCC-2998, HCT-116, SM-12), melanoma (SK-MEL-28, SK-M2L-2, LOX IMV1, M14, MALM-3M, SK-MEL-5, UACC-257, UACC-62, MDA-MB-435), and hematopoietic (CCRF-CEM, K-562, MOLT-4, SR, RPMI-8226) cancers. These cell lines have been extensively characterized and their mutational status for a number of human cancer genes, including BRAF and RAS (e.g., NRAS, KRAS, or HRAS), is known (see the World Wide Web at discover.nci.nih.gov/cellminer/mutationGeneLoad.do).
rIGFBP7 was expressed and purified as described above. To monitor apoptosis following rIGFBP7 treatment, 5×10^5 cells were treated with rIGFBP7 (10 μg/ml) for 24 hours and stained for Annexin V-PE. The results are shown in FIG. 11A. rIGFBP7 induced apoptosis in 11/11 (100%) of the cell lines that contained a BRAF mutation and 8/13 (61.5%) of the cell lines that contained a RAS mutation. One cell line contained both a BRAF and a RAS mutation, and this cell line was susceptible to rIGFBP7-mediated apoptosis.

Substance: rIGFBP7: purified recombinant human IGFBP7, C-terminal Flag-tagged, from baculovirus-infected Sf9 insect cells
- survival (Kaplan-Meier) ([1]; 100 μg one day before cell injection and on days 3 and 6, PBS mice died within 18 days): still viable at day 30
- survival (Kaplan-Meier) ([1]; 100 μg tail vein at days 3, 6 and 9 after cell injection, control mice died at 20 days): still viable at day 30
- lung metastasis by bioluminescent imaging ([1]; 100 μg tail vein from day 3, imaged on day 6): no evidence of lung metastasis
- upregulation of IGFBP7 and PEA15 ([2]; SK-MEL-28 cells): neither IGFBP7 nor PEA15 were upregulated
- induction of the seven BRAFV600E-upregulated genes ([2]; melanocytes, IGFBP7 being the exception): six of the seven genes were induced
- BNIP3L upregulation ([2]; primary melanocytes): only modestly upregulated
- proliferation of primary melanocytes [3]: blocked proliferation of primary melanocytes in a dose-dependent manner
- apoptosis by caspase 3 activation [4]: apoptosis occurred as evidenced by caspase 3 activation
- expression of SMARCB1 and BNIP3L [4]: significantly increased
- cell lines in which apoptosis was induced ([5]; cell lines that contained a BRAF mutation (11/11), 10 μg/ml, 24 hours): 100%
- cell lines in which apoptosis was induced ([5]; cell lines that contained a RAS mutation (8/13), 10 μg/ml, 24 hours): 61.5%
- cell lines susceptible to apoptosis ([5]; cell lines without a BRAF or RAS mutation (4/34), 10 μg/ml, 24 hours): 11.8%
- susceptibility to rIGFBP7-mediated apoptosis ([5]; one cell line with both a BRAF and a RAS mutation): susceptible
